From ChEMBL document CHEMBL1201862, “PubChem BioAssay data set” (2004)
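Results reflect a 48-hour exposure of cells in 96-well plates to compound at five concentrations. GI50: concentration for 50% inhibition of growth.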 Calls of active or inactive are those of the source. No stated cut-off is given here; in the data, active = GI50 up to about 1.1 µM and inactive = higher.

Key:
Experiment in all cases: NCI-60 cell line screen, 48 h
[1] = system: HOP-62
[2] = system: NCI-H460
[3] = system: ACHN
[4] = system: RPMI-8226
[5] = system: SK-OV-3
[6] = system: HT-29
[7] = system: OVCAR-3
[8] = system: K562
[9] = system: HL-60
[10] = system: SN12C
[11] = system: M14
[12] = system: OVCAR-8
[13] = system: UACC-62
[14] = system: HOP-92
[15] = system: A498
[16] = system: UACC-257
[17] = system: SNB-19
[18] = system: MCF7

Measured: GI50

O=C1c2ccccc2C(=O)c2c(O)c(NCCCNCCO)cc(O)c21
inactive: [1] 2.44 µM | [2] 3.33 µM | [3] 3.82 µM | [4] 7.59 µM | [5] 12.4 µM | [6] 4.16 µM | [7] 12.1 µM | [8] 1.66 µM | [9] 4.18 µM | [10] 10.5 µM | [11] 16.7 µM | [12] 5.79 µM | [13] 18.7 µM | [14] 12.4 µM | [15] 14.8 µM

O=C(c1cccc2ccccc12)N1CCC(C2CCN(C(=O)c3cccc4ccccc34)CC2)CC1
inactive: [1] > 100 µM | [2] > 100 µM | [3] > 100 µM | [4] 91.8 µM | [5] > 100 µM | [6] > 100 µM | [7] > 100 µM | [8] > 100 µM | [9] 65.5 µM | [10] > 100 µM | [11] > 100 µM | [12] > 100 µM | [13] > 100 µM | [16] > 100 µM | [14] > 100 µM | [15] > 100 µM

CC(NS(=O)(=O)c1ccc([N+](=O)[O-])cc1)C(=O)O (stereo not drawn)
inactive: [2] > 100 µM | [3] > 100 µM | [4] > 100 µM | [5] > 100 µM | [6] > 100 µM | [7] > 100 µM | [8] > 100 µM | [9] > 100 µM | [10] > 100 µM | [11] > 100 µM | [12] > 100 µM | [13] > 100 µM | [17] > 100 µM | [16] > 100 µM | [14] > 100 µM | [15] > 100 µM

COC(=O)CC1C(=O)OCc2c1cc1n(c2=O)Cc2c-1nc1ccccc1c2OC (stereo not drawn)
inactive: [1] 11 µM | [2] 4.16 µM | [3] 23.6 µM | [4] > 100 µM | [5] 54.5 µM | [6] > 100 µM | [8] 84.1 µM | [9] 18.5 µM | [10] 41.4 µM | [11] 18 µM | [12] > 100 µM | [13] 19.7 µM | [17] 37 µM | [16] > 100 µM | [14] 20.7 µM | [15] > 100 µM

CC(=O)NNc1nc(C)c(C(=O)NNC(=O)C(=O)Nc2c(C)cccc2C)s1
inactive: [1] > 100 µM | [2] 33 µM | [3] 37.6 µM | [4] 26.2 µM | [5] > 100 µM | [6] 36.6 µM | [7] 26.4 µM | [8] 34 µM | [9] 25.9 µM | [10] > 100 µM | [11] 54.1 µM | [12] 26.2 µM | [13] 33.3 µM | [17] 61 µM | [16] 36.1 µM | [14] 40.4 µM | [15] > 100 µM

O=C1[C@@H]2C3C=CC([C@H]4C(=O)N(CO)C(=O)[C@@H]34)[C@@H]2C(=O)N1CO
inactive: [1] > 100 µM | [2] 30.2 µM | [3] > 50.7 µM | [4] 19.4 µM | [5] > 100 µM | [6] 62.8 µM | [7] > 100 µM | [8] 61.2 µM | [9] 24.9 µM | [10] > 57.5 µM | [11] > 50.7 µM | [12] 35.6 µM | [13] > 76.2 µM | [17] > 100 µM | [16] > 100 µM | [14] > 78.2 µM | [15] > 100 µM

COc1ccc(/C=C/c2cc(OC)c(OC)c(OC)c2)cc1OC
inactive: [1] 44 µM | [2] > 100 µM | [3] > 100 µM | [4] > 100 µM | [5] > 100 µM | [6] > 72.8 µM | [7] > 100 µM | [8] > 100 µM | [9] > 70.3 µM | [10] > 100 µM | [11] > 100 µM | [12] > 100 µM | [13] > 80.7 µM | [17] > 100 µM | [16] > 100 µM | [14] 80.5 µM | [15] > 74.1 µM

CCC(C)OC(=O)C1C2CCC(O2)C1C(=O)O (stereo not drawn)
inactive: [1] > 100 µM | [2] 24.7 µM | [3] > 72.4 µM | [4] > 48.3 µM | [5] > 100 µM | [6] > 43.4 µM | [7] > 100 µM | [8] > 100 µM | [9] > 100 µM | [10] > 100 µM | [11] > 100 µM | [12] > 70 µM | [13] > 100 µM | [17] > 100 µM | [16] > 70.5 µM | [14] > 66.4 µM | [15] > 47.3 µM

O=C(CC1(O)C(=O)Nc2ccccc21)c1ccncc1 (stereo not drawn)
inactive: [2] > 100 µM | [3] > 100 µM | [4] > 100 µM | [5] > 100 µM | [6] > 100 µM | [8] > 100 µM | [9] > 100 µM | [10] > 100 µM | [11] > 100 µM | [13] > 100 µM | [17] > 100 µM | [14] > 100 µM | [15] > 100 µM

COC(=O)CC(=O)OC
inactive: [1] > 100 µM | [2] > 100 µM | [3] > 100 µM | [4] > 100 µM | [5] > 100 µM | [6] > 100 µM | [7] > 100 µM | [8] > 100 µM | [9] > 100 µM | [10] > 100 µM | [11] > 100 µM | [12] > 100 µM | [13] > 100 µM | [17] > 100 µM | [16] > 100 µM | [14] > 100 µM | [15] > 100 µM

CN(C(=O)C12C3C4C5C3C1(C(=O)C13C6C7C8C6C1C8C73)C5C42)C(C)(C)C (stereo not drawn)
inactive: [1] > 50 µM | [2] > 32.7 µM | [3] > 50 µM | [4] > 27.3 µM | [5] > 50 µM | [6] > 37.8 µM | [7] > 50 µM | [8] > 25.6 µM | [9] > 19.3 µM | [10] > 50 µM | [11] > 50 µM | [12] > 50 µM | [13] > 50 µM | [17] > 50 µM | [16] > 50 µM | [14] > 50 µM | [15] > 50 µM

Clc1ccc(C2=Nc3ccccc3SC(c3ccc(Cl)c(Cl)c3)C2)c(Cl)c1 (stereo not drawn)
inactive: [1] 12.6 µM | [2] 17.3 µM | [3] 14.2 µM | [4] 2.39 µM | [5] 28.1 µM | [6] 11.4 µM | [7] 13.3 µM | [8] 6 µM | [9] 8.45 µM | [10] 17.2 µM | [11] 16 µM | [12] 15.3 µM | [13] 15.2 µM | [17] 20.7 µM | [16] 19.5 µM | [14] 13.8 µM | [15] 20.6 µM

CCCN(CCC)C(=O)c1c([N+](=O)[O-])cc(C(F)(F)F)cc1[N+](=O)[O-]
inactive: [1] > 100 µM | [2] 37 µM | [3] 65.9 µM | [4] 47.6 µM | [5] > 100 µM | [6] 32.5 µM | [7] 10.7 µM | [8] 28.3 µM | [9] 20 µM | [10] 40.9 µM | [11] 22.5 µM | [12] 39.1 µM | [13] 17.9 µM | [17] 68.4 µM | [16] > 10 µM | [14] 34.5 µM | [15] 75.7 µM

CCc1cccc(NC(=O)c2cc(/C=C/c3ccccc3)nc(S)n2)c1
inactive: [1] > 100 µM | [2] > 100 µM | [3] > 100 µM | [4] > 100 µM | [5] > 100 µM | [6] > 100 µM | [7] > 100 µM | [8] > 100 µM | [9] > 100 µM | [10] > 100 µM | [11] > 100 µM | [12] > 100 µM | [13] > 100 µM | [17] > 100 µM | [16] > 100 µM | [14] > 100 µM | [15] > 100 µM

COC1O[C@@H]2COC(C)(C)O[C@@H]2C(=O)N1Nc1ccc([N+](=O)[O-])cc1 (stereo partly drawn)
inactive: [1] > 100 µM | [2] > 100 µM | [3] > 100 µM | [4] 21 µM | [5] > 100 µM | [6] 63 µM | [7] > 100 µM | [8] > 100 µM | [9] > 100 µM | [10] > 100 µM | [11] > 100 µM | [12] > 100 µM | [13] > 100 µM | [17] > 100 µM | [16] > 100 µM | [14] > 100 µM | [15] > 100 µM

C[C@H]1C(=O)CC[C@]2(C)CCC(C(C)(C)O)CC12O (stereo partly drawn)
inactive: [1] > 100 µM | [2] > 100 µM | [3] > 100 µM | [4] > 100 µM | [5] > 100 µM | [6] > 100 µM | [7] > 100 µM | [8] > 100 µM | [9] > 100 µM | [10] > 100 µM | [11] > 100 µM | [12] > 100 µM | [13] > 100 µM | [17] > 100 µM | [16] > 100 µM | [14] > 100 µM | [15] > 100 µM

C/C(=N\NC(=O)c1ccncc1)c1ccccc1F
inactive: [1] > 10 µM | [2] > 10 µM | [3] > 10 µM | [18] > 10 µM | [4] > 10 µM | [5] > 10 µM | [7] > 10 µM | [8] > 10 µM | [9] > 10 µM | [10] > 10 µM | [11] > 10 µM | [12] > 10 µM | [17] > 10 µM | [14] 2.37 µM | [15] > 10 µM
